Laboratory results taken from patent US20120034613A1, “Apparatus and Method for Testing Relationships Between Gene Expression and Physical Appearance of Skin” (NSE Products, Inc., priority 2010, published 2012).

Tested on: EpidermFT™ Skin Model (EFT-400) full thickness skin cultures
Assay: Affymetrix GeneChip HG U133 Plus 2.0 microarray global gene expression, agent-exposed vs untreated skin cultures
Type: cell-based, human
Details: 24 hr; for Direction / Fold change: Salicin 0.5%
[1] = Salicin 0.5% vs Untreated Control

## OCc1ccccc1O[C@@H]1O[C@H](CO)[C@@H](O)[C@H](O)[C@H]1O [Salicin, 2-(Hydroxymethyl)phenyl β-D-glucospyranoside]
1554602_at RBM8A
  Direction: up
  Fold change: 2.141
1555270_a_at WFS1
  Direction: up
  Fold change: 2.096
1559477_s_at MEIS1
  Direction: up
  Fold change: 2.098
1561042_at ITGB1
  Direction: up
  Fold change: 2.151
[1]
  Direction ABCD3 (202850_at): down
  Direction ABCG4 (207593_at): down
  Direction ACACA (212186_at): down
  Direction ACAD9 (224160_s_at): down
  Direction ACOX3 (204241_at): down
  Direction ADAMTSL4 (226071_at): down
  Direction ADARB1 (203865_s_at): down
  Direction AHNAK (211986_at): down
  Direction AIF1L (223075_s_at): down
  Direction AK1 (202587_s_at): down
  Direction AK3L1 /// AK3L2 (204347_at): down
  Direction ALDH5A1 (203609_s_at): down
  Direction ALOX12 (207206_s_at): down
  Direction AMACR (209426_s_at): down
  Direction AMOTL2 (203002_at): down
  Direction ANK3 (207950_s_at): down
  Direction APPL2 (218218_at): down
  Direction AQP3 (203747_at): down
  Direction ARHGAP27 (225618_at): down
  Direction ARL17 /// ARL17P1 (1555964_at): down
  Direction ARPC1A (200950_at): down
  Direction ASAP3 (222236_s_at): down
  Direction ATP2B4 (212136_at): down
  Direction ATXN3 (205416_s_at): down
  Direction BAIAP2 (205293_x_at): down
  Direction BCL11A (1559078_at): down
  Direction BCL11B (222895_s_at): down
  Direction BICD2 (1553021_s_at): down
  Direction BLCAP (201032_at): down
  Direction C1orf46 (216718_at): down
  Direction C1orf71 (225551_at): down
  Direction C1orf97 (224443_at): down
  Direction C2orf7 (223312_at): down
  Direction C4orf3 (224605_at): down
  Direction C6orf105 (215100_at): down
  Direction C12orf29 (228378_at): down
  Direction C15orf52 (227272_at): down
  Direction C17orf67 (236863_at): down
  Direction C20orf177 (225313_at): down
  Direction CALM1 /// CALM2 /// CALM3 (200653_s_at): down
  Direction CALM1 /// CALM2 /// CALM3 (209563_x_at): down
  Direction CAT (211922_s_at): down
  Direction CENPT (218148_at): down
  Direction CEP76 (52285_f_at): down
  Direction CERK (218421_at): down
  Direction CKB (200884_at): down
  Direction CLCN5 (232127_at): down
  Direction CLDN7 (202790_at): down
  Direction CLIP1 (1558924_s_at): down
  Direction CLN8 (229958_at): down
  Direction CNDP2 (217752_s_at): down
  Direction CNTN1 (211203_s_at): down
  Direction CSNK2A2 (203575_at): down
  Direction CTAGE4 (215549_x_at): down
  Direction CXCL12 (203666_at): down
  Direction CYB5R1 (202263_at): down
  Direction CYCS (244546_at): down
  Direction DBI (211070_x_at): down
  Direction DDR1 (1007_s_at): down
  Direction DDX50 (1568815_a_at): down
  Direction DHRS4 /// DHRS4L2 (218021_at): down
  Direction DMD (203881_s_at): down
  Direction DOPEY2 (205248_at): down
  Direction ELOVL3 (234513_at): down
  Direction EPCAM (201839_s_at): down
  Direction EPHB4 (202894_at): down
  Direction EPHB6 (204718_at): down
  Direction ERI2 (213365_at): down
  Direction F2RL1 (206429_at): down
  Direction FAM33A (225684_at): down
  Direction FAR1 (224865_at): down
  Direction FBXO3 (229955_at): down
  Direction FBXO3 (238686_at): down
  Direction FBXO9 (212991_at): down
  Direction FBXO9 (1559094_at): down
  Direction FIGNL1 (222843_at): down
  Direction FKBP1B (206857_s_at): down
  Direction FKBPL (219187_at): down
  Direction FRAG1 (41858_at): down
  Direction FUCA1 (202838_at): down
  Direction FUT2 (210608_s_at): down
  Direction GAB1 (225998_at): down
  Direction GAS7 (202192_s_at): down
  Direction GDAP1 (226269_at): down
  Direction GNG4 (205184_at): down
  Direction GPR1 (214605_x_at): down
  Direction GPR137B (204137_at): down
  Direction GSN (200696_s_at): down
  Direction HES5 (239230_at): down
  Direction HIGD1A (217845_x_at): down
  Direction HN1 (222396_at): down
  Direction HN1L (212115_at): down
  Direction HSDL2 (209512_at): down
  Direction ID2 (201565_s_at): down
  Direction IDH2 (210045_at): down
  Direction IL22RA1 (220056_at): down
  Direction INPP5D (203332_s_at): down
  Direction ITGA3 (201474_s_at): down
  Direction JAG1 (209099_x_at): down
  Direction JAG1 (216268_s_at): down
  Direction JMJD7 /// JMJD7-PLA2G4B /// PLA2G4B (222256_s_at): down
  Direction KCNK7 (224055_x_at): down
  Direction KCTD15 (222668_at): down
  Direction KIF1B (209234_at): down
  Direction KIF1B (225878_at): down
